Molecular target: T1, HosA (TAP-tagged HosA) (Aspergillus nidulans, UniProt Q5B6M4)
T1 construct: gene ANIA_03806; TAP-tagged HosA expressed in A. nidulans hosA deletion strain under xylPp; IgG-Sepharose pull-down under native conditions, eluted by TEV protease (CBP part of tag kept); enriched fraction, endogenous complex partners not examined
T1 sequence (Q5B6M4 1-482): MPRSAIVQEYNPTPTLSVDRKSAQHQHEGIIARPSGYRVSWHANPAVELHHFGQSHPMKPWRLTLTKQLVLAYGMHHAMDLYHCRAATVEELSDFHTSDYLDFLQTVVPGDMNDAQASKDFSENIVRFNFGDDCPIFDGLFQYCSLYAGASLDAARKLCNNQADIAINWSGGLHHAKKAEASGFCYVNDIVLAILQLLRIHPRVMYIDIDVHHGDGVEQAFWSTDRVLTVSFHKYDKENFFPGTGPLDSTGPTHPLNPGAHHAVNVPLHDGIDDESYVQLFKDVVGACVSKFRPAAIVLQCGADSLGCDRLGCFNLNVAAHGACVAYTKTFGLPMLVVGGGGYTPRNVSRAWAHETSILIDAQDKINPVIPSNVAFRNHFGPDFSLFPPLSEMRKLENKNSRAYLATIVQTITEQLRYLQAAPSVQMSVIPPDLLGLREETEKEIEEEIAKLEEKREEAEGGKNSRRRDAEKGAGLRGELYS
Assay: fluorometric HDAC assay, labelled acetylated peptide substrate (EMD Millipore kit)
Format: biochemical
Conditions: read-out: % inhibition at 100 nM

## CC(/C=C/C(=O)NO)=C\[C@@H](C)C(=O)c1ccc(N(C)C)cc1 [TSA, trichostatin A]
  inhibition at 0.1 µM: > 60%

From paper PMC6156440, “A Class 1 Histone Deacetylase as Major Regulator of Secondary Metabolite Production in Aspergillus nidulans” (Frontiers in Microbiology, 2018)
